Values quoted from earlier work as cited in US11992546B2, “Process of coloring keratinous material comprising the use of an organosilicon compound, an effect pigment, and a sealing reagent vi” (Henkel AG & Co. KGaA, priority 2019, dated 2024).
Like-named read-outs stand apart in the source and are kept apart here.

solubility in water (at 25° C.)	Compound	solubility in water (25° C.)
–	O=S(=O)([O-])c1ccc(N=Nc2c(O)ccc3ccccc23)cc1.[Na+] [Acid Orange 7, sodium salt of 4-[(2-hydroxy-1-naphthyl)azo]benzene sulphonate]	more than 7 g/L
–	Nc1cc(S(=O)(=O)[O-])cc2cc(S(=O)(=O)[O-])c(N=Nc3ccccc3)c(O)c12.[Na+].[Na+] [Acid Red 33, disodium salt of 5-amino-4-hydroxy-3-(phenylazo)-naphthalene-2,7-disulphonate]	2.5 mg/mL
–	O=C([O-])c1c(Cl)c(Cl)c(Cl)c(Cl)c1-c1c2c(Br)cc(=O)c(Br)c-2oc2c(Br)c(O)cc(Br)c12.O=C([O-])c1c(Cl)c(Cl)c(Cl)c(Cl)c1-c1c2c(Br)cc(=O)c(Br)c-2oc2c(Br)c(O)cc(Br)c12.[Na+].[Na+] [Acid Red 92, disodium salt of 3,4,5,6-tetrachloro-2-(1,4,5,8-tetrabromo-6-hydroxy-3-oxoxanthen-9-yl)benzoic acid]	greater than 10 g/L
highly soluble	O=C([O-])C1=NN(c2ccc(S(=O)(=O)[O-])cc2)C(=O)C1N=Nc1ccc(S(=O)(=O)[O-])cc1.[Na+].[Na+].[Na+] (stereo not shown) [Acid Yellow 23, trisodium salt of 4,5-dihydro-5-oxo-1-(4-sulfophenyl)-4-((4-sulfophenyl)azo)-1H-pyrazole-3-carboxylic acid]	–
